# Read-outs that look alike come from different tables or passages of the source.
# Columns and labels:
# [1] = Koster test (analgesic action); type: in vivo; conditions: po
# Excerpt: (§1) Said properties were evidenced in animals by means of conventional pharmacological tests.
# Analgesic action: Koster test (cf. KOSTER and ANDERSON. Feder. Proceed., 1959, 18, 412)
# [2] = test system: fever induced by injection of barm; assay: Antipyretic action against fever induced by injection of barm, in rats; type: in vivo; conditions: p.o.
# Excerpt: as §1
# Antipyretic action, against fever induced by injection of barm, in rats.
# [3] = test system: carrageenin-induced edema; assay: Carrageenin-induced edema in rats (anti-inflammatory action); type: in vivo; conditions: Rattus norvegicus, po
# Excerpt: as §1
# (§2) Anti-inflammatory action:
# carrageenin-induced edema in rats (cf. WINTER, RISLEY and MUSS, Proc. Soc. Exp. Biol. Med., 1962, 111, 544),
# LD50 (acute toxicity) = conditions: in vivo
# [4] = test system: ultraviolet-induced erythema; assay: Ultraviolet-induced erythema in guinea-pigs (anti-inflammatory action); type: in vivo; conditions: Cavia porcellus, po, read-out: UV-induced erythema ED50
# Excerpt: as §1, §2
# ultraviolet-induced erythema in guinea-pigs (cf. WINTER, Arch. Int. Pharmaco., 1958, 116, 261),
# [5] = test system: adjuvant-induced polyarthritis; assay: Adjuvant-induced polyarthritis in rats (anti-inflammatory action); type: in vivo; conditions: Rattus norvegicus, 336 h, p.o., oral dosage which decreases by at least 50% the manifestations of arthritis within 14 days
# Excerpt: as §1, §2
# adjuvant-induced polyarthritis in rats, determination of the oral dosage (mg/kg/day) which decreases by at least 50% the manifestations of arthritis within 14 days.
Structure (SMILES),ED50 [1],Antipyretic action [2],ED40 [3],"LD50 (LD50 (acute toxicity); ip, I.P., read-out: LD50 I.P.)","LD50 (LD50 (acute toxicity); po, P.O., read-out: LD50 P.O.)",ED50 [4],ED50 [5]
"CC(C(=O)O)c1ccc(C2=CC(=NO)CCC2)cc1 (stereo not drawn) [Example 1, 2-[4-(3'-Hydroxyimino-cyclohexen-1'-yl)-phenyl]propionic acid]",30 to 50 mg/kg,30 mg·kg,2.2 mg/kg,> 100 mg/kg,> 100 mg/kg,,
"CC(C(=O)O)c1ccc(C2CCCC(=NO)C2)cc1 (stereo not drawn) [Example 2, 2-[4-(3'-Hydroxyimino-cyclohexyl)phenyl]propionic acid]",4.5 mg/kg,3 mg·kg,0.25 mg/kg,> 200 mg/kg,> 200 mg/kg,2 mg/kg,0.9 mg/kg
